Measured values published in paper PMC11605291 (Frontiers in Pharmacology, 2024).

Test: Plasma pharmacokinetics of amdizalisib (LC-MS/MS) after a single oral dose of [14C]amdizalisib suspension
Format: in vivo, human
Conditions: for CL/F: amdizalisib in plasma, single oral 30 mg/100 µCi suspension, mean ± SD
Procedure: Six subjects were admitted to the clinical research center 1 day prior to dosing, with random urine and fecal samples collected as blank excretion controls. After fasting overnight for at least 10 h, a blank blood sample was collected after a regular breakfast (449 kcal, with ∼35% energy from fat) on Day 1. […] It is noteworthy that the medication administration duration for each subject was strictly kept within 10 min. Scheduled collection of urine, feces, and blood samples, and safety monitoring proceeded until completion.
Venous blood samples were collected within 0.5 h prior to administration and at 0.5, 1, 1.5, 2, 3, 4, 6, 8, 12, 24, 36, 48, 72, and 96 h after administration. About 8 mL of blood was collected at each time point in the anticoagulant collection tube containing K2-EDTA. The centrifuged plasma was used for non-radioactive and radioactive pharmacokinetic and biotransformation (metabolite) analyses. In addition, about 2 mL of venous blood was collected within 0.5 h before administration and at 1, 4, 8, 12, 24, and 48 h after administration for whole blood radioactivity analysis. Additional 10 mL of venous blood for each time point was collected at 1, 4, 8, 12, 24, and 48 h after administration, and the plasma was obtained by centrifugation for biotransformation (metabolites) analysis. Urine and fecal samples were collected until 144 h (4 subjects) or 192 h (2 subjects) after administration.
Chromatographic separation was achieved on an XBridge C18 column, maintained at 40°C, with a mobile phase consisting of 2 mM ammonium formate in water (A) and methanol (B). A gradient elution was employed at a flow rate of 0.6 mL/min. The autosampler was set to 5°C, with an injection volume of 5 μL. […] Each analytical run included calibration standards and quality control samples to ensure method accuracy and precision. The corrected total concentration data of labelled (^14C) and unlabeled (^12C) analytes were given directly by Analyst data processing software. The standard curve consists of 0.500, 1.00, 2.00, 10.0, 50.0, 200, 450, 500 ng/mL. The quality control (QC) sample concentrations were 0.5 (lower limit of quantification QC), 1.50 (lower QC), 20.0 (low to medium QC), 250 (medium QC), 400 (high QC) ng/mL, respectively.
Pharmacokinetic analysis was performed using Phoenix WinNonlin® software version 8.3. […] Non-compartmental model was used to estimate the main PK parameters. Descriptive statistics applied to parameters including maximum plasma concentration after administration (Cmax), the time to reach maximum plasma concentration after administration (Tmax), elimination rate constant (λz), area under the plasma concentration-time curve from the time 0 to the time of last quantifiable concentration (AUC0-t, obtained by the linear trapezoidal method), area under the plasma concentration-time curve from time 0 extrapolated to infinity (AUC0-∞, AUC0-∞ = AUC0-t + Ct/λ z ), half-life (t1/2, t1/2 = ln ([…])/λz), mean residence time (MRT, MRT = AUMC/AUC), apparent clearance (CL/F, CL/F = Dose/AUC0-∞), apparent volume of distribution based on terminal phase (Vz/F, Vz/F = Dose/(λz×AUC0-∞)).

SMILES: C[C@H](Nc1ncnc(N)c1C#N)c1cc2ncc(Cl)n2nc1-c1ccccc1 [Amdizalisib]
- CL/F: 16.8 ± 4.44 L/h
- CL/F (listed as amdizalisib): 16.8 L/h
- concentration at 72 h (male, human, plasma, oral, 30 mg, below the lower quantifiable limit in 4 of 6 subjects, detectable in 2): < 0.5 ng/mL
- AUC(0-inf) (male, human, plasma, po, 30 mg): 1880 ± 478 ng·h/mL
- AUC(0-t) (male, human, plasma, po, 30 mg): 1870 ± 474 ng·h/mL
- Cmax (male, human, plasma, po, 30 mg): 244 ± 48.9 ng/mL
- half-life (male, human, plasma, po, 30 mg): 8.34 ± 2.43 h
- MRT last (male, human, plasma, po, 30 mg, read-out: MRT0-t): 9.65 ± 1.48 h
- Vd/F (male, human, plasma, po, 30 mg, read-out: Vz/F): 192 ± 28 L
